Measured values published in patent US9114137B2, “Derivatives of pyrazolophenyl-benzenesulfonamide compounds and use thereof as antitumor agents” (Nerviano Medical Sciences S.R.L., priority 2010, dated 2015).
Read-outs that look alike come from different tables or passages of the source.

Columns and labels:
Assay type in all cases: cell-based
[1] = test system: human melanoma cells A375 (with a mutated B-RAF); assay: In vitro cell proliferation assay, A375; settings: A-375
Experimental: (§1) Exponentially growing human melanoma cells A375 (with a mutated B-RAF) and human melanoma cells Mewo (with wild-type B-Raf) were seeded and incubated at 37° C. in a humidified 5% CO2 atmosphere. After 24 hours, scalar doses of the compound were added to the medium and cells incubated for 72 hours. At the end of treatment, cells were washed and counted. Cell number was determined by a cellular adenosine triphosphate monitoring system. Cell proliferation was compared to control cells and the concentration inhibiting cell growth by 50% was calculated.

[2] = test system: human melanoma cells Mewo (with wild-type B-Raf); assay: In vitro cell proliferation assay, Mewo; settings: 72 hours incubation, cell number by ATP monitoring
Experimental: as §1

[3] = test system: p-MAPK (T202/Y204) in A375 human melanoma cells, having a mutated B-RAF; assay: p-MAPK (T202/Y204) ArrayScan assay; settings: A-375, 1.5 or 2 hours treatment, cytoplasmatic p-MAPK fluorescence, read-out: Array Scan A375 IC50
Experimental: A375 human melanoma cells, having a mutated B—RAF, were seeded in 384-well poly-lysine coated plates (Matrix) at a density of 1000 cells/well with appropriate medium supplemented with 10% FCS and incubated for 16-24 hours. Cells were treated for 1.5 or 2 hours with increasing doses of compounds (starting dose 10 μM, dilution factor 2.5). At the end of the treatment cells were fixed with p-formaldehyde 3.7% for 15-30 min, then washed twice with D-PBS (80 μl/well) and permeabilized with D-PBS containing 0.1% Triton X-100 and 1% BSA (Sigma-Aldrich) for 15 minutes at room temperature (staining solution). Anti-phospho-MAPK (T202/Y204) monoclonal antibody E10 (Cell Signaling, cat. #9106) diluted 1:100 was added in staining solution and incubated for 1 hour at 37° C. After removal of the primary antibody solution, the anti-mouse Cy™2-conjugated (Green) secondary antibody (Amersham) diluted 1:500 in staining solution containing 2 μg/ml DAPI was added. The plate was incubated for 1 hour at 37° C., washed twice and then red with Cellomics' ArrayScan VTI (4 fields/well, CytoNucTrans algorithm).
The parameter “MEAN_RingAvgIntenCh2,” which measures the mean cytoplasmatic fluorescence intensity associated to p-MAPK staining, is reported as the final result.

[4] = A375 human melanoma cells (mutated B-RAF), 72 hours incubation, cell number by ATP monitoring, read-out: Proliferation A375 IC50

Row | SMILES | IC50 [1, 4] [µM] | IC50 [2] [µM] | IC50 [3] [µM] | IC50 ([1]; Homo sapiens, value quoted in text for the reference compound, no unit or cell line printed, read-out: antiproliferative activity) [µM]
1 | CC(=O)Nc1cc(-c2cn(C3CCOCC3)nc2-c2cccc(NS(=O)(=O)c3cc(F)ccc3F)c2F)ccn1 [Compound 26, N-{4-[3-(3-{[(2,5-difluorophenyl)sulfonyl]amino}-2-fluorophenyl)-1-(tetrahydro-2H-pyran-4-yl)-1H-pyrazol-4-yl]pyridin-2-yl}acetamide] | 0.007 | > 10 | < 0.016 | –
2 | CC(C)C(=O)Nc1cc(-c2cn(C3CCOCC3)nc2-c2cccc(NS(=O)(=O)c3cc(F)ccc3F)c2F)ccn1 [Compound 30, N-{4-[3-(3-{[(2,5-difluorophenyl)sulfonyl]amino}-2-fluorophenyl)-1-(tetrahydro-2H-pyran-4-yl)-1H-pyrazol-4-yl]pyridin-2-yl}-2-methylpropanamide] | < 0.016 | > 10 | < 0.016 | –
3 | CC(=O)Nc1cc(-c2cn(C3CCN(C)CC3)nc2-c2cccc(NS(=O)(=O)c3cc(F)ccc3F)c2F)ccn1 [Compound 31, N-{4-[3-(3-{[(2,5-difluorophenyl)sulfonyl]amino}-2-fluorophenyl)-1-(1-methylpiperidin-4-yl)-1H-pyrazol-4-yl]pyridin-2-yl}acetamide] | < 0.016 | > 10 | < 0.016 | –
4 | CC(C)n1cc(-c2ccnc(N)n2)c(-c2cccc(NS(=O)(=O)c3cc(F)ccc3F)c2F)n1 [Compound 10, N-{3-[4-(2-Amino-pyrimidin-4-yl)-1-isopropyl-1H-pyrazol-3-yl]-2-fluoro-phenyl}-2,5-difluoro-benzenesulfonamide] | 0.003 | > 10 | < 0.016 | –
5 | CC(C)n1cc(-c2ccnc(N)c2)c(-c2cccc(NS(=O)(=O)c3cc(F)ccc3F)c2F)n1 [Compound 12, N-{3-[4-(2-Amino-pyridin-4-yl)-1-isopropyl-1H-pyrazol-3-yl]-2-fluoro-phenyl}-2,5-difluoro-benzenesulfonamide] | 0.017 | > 10 | < 0.016 | –
6 | Nc1cc(-c2cn(C3CCCC3)nc2-c2cccc(NS(=O)(=O)c3cc(F)ccc3F)c2F)ccn1 [Compound 17, N-{3-[4-(2-Amino-pyridin-4-yl)-1-cyclopentyl-1H-pyrazol-3-yl]-2-fluoro-phenyl}-2,5-difluoro-benzenesulfonamide] | 0.028 | > 10 | < 0.016 | –
7 | Nc1cc(-c2cn(C3CCOCC3)nc2-c2cccc(NS(=O)(=O)c3cc(F)ccc3F)c2F)ccn1 [Compound 14, N-{3-[4-(2-Amino-pyridin-4-yl)-1-(tetrahydro-pyran-4-yl)-1H-pyrazol-3-yl]-2-fluoro-phenyl}-2,5-difluoro-benzenesulfonamide] | 0.034 | > 10 | < 0.016 | –

Now from value to compound:

Row | IC50 [1, 4] [µM] | IC50 [2] [µM] | IC50 [3] [µM] | IC50 ([1]; Homo sapiens, value quoted in text for the reference compound, no unit or cell line printed, read-out: antiproliferative activity) [µM] | SMILES
8 | 0.012 | > 10 | < 0.016 | – | O=S(=O)(Nc1cccc(-c2nn(C3CCN(C4CC4)CC3)cc2-c2ccncc2)c1F)c1cc(F)ccc1F [Compound 2, N-{3-[1-(1-Cyclopropyl-piperidin-4-yl)-4-pyridin-4-yl-1H-pyrazol-3-yl]-2-fluoro-phenyl}-2,5-difluoro-benzenesulfonamide]
9 | 0.017 | > 10 | < 0.016 | – | Nc1nccc(-c2cn(CCF)nc2-c2cccc(NS(=O)(=O)c3cc(F)ccc3F)c2F)n1 [Compound 11, N-{3-[4-(2-Amino-pyrimidin-4-yl)-1-(2-fluoro-ethyl)-1H-pyrazol-3-yl]-2-fluoro-phenyl}-2,5-difluoro-benzenesulfonamide]
10 | < 0.016 | > 10 | < 0.016 | – | O=S(=O)(Nc1cccc(-c2nn(C3CCC(F)(F)CC3)cc2-c2ccncc2)c1F)c1cc(F)ccc1F [Compound 25, N-{3-[1-(4,4-difluorocyclohexyl)-4-(pyridin-4-yl)-1H-pyrazol-3-yl]-2-fluorophenyl}-2,5-difluorobenzenesulfonamide]
11 | 0.048 | > 10 | < 0.016 | 0.084 | CCn1cc(-c2ccncc2)c(-c2cccc(NS(=O)(=O)c3cc(F)ccc3F)c2F)n1 [Ref. cpd, N-{3-[1-ethyl-4-(pyridin-4-yl)-1H-pyrazol-3-yl]-2-fluorophenyl}-2,5-difluorobenzenesulfonamide, reference compound]
12 | < 0.016 | > 10 | < 0.016 | – | Nc1cc(-c2cn(CCF)nc2-c2cccc(NS(=O)(=O)c3cc(F)ccc3F)c2F)ccn1 [Compound 13, N-{3-[4-(2-Amino-pyridin-4-yl)-1-(2-fluoro-ethyl)-1H-pyrazol-3-yl]-2-fluoro-phenyl}-2,5-difluoro-benzenesulfonamide]
13 | 0.008 | > 10 | < 0.016 | – | CN1CCC(n2cc(-c3ccncc3)c(-c3cccc(NS(=O)(=O)c4cc(F)ccc4F)c3F)n2)CC1 [Compound 5, 2,5-Difluoro-N-{2-fluoro-3-[1-(1-methyl-piperidin-4-yl)-4-pyridin-4-yl-1H-pyrazol-3-yl]-phenyl}-benzenesulfonamide]
14 | < 0.016 | > 10 | < 0.016 | – | O=S(=O)(Nc1cccc(-c2nn(CCF)cc2-c2ccncc2)c1F)c1cc(F)ccc1F [Compound 7, 2,5-Difluoro-N-{2-fluoro-3-[1-(2-fluoro-ethyl)-4-pyridin-4-yl-1H-pyrazol-3-yl]-phenyl}-benzenesulfonamide]
15 | 0.005 | > 10 | < 0.016 | – | CC(C)n1cc(-c2ccncc2)c(-c2cccc(NS(=O)(=O)c3cc(F)ccc3F)c2F)n1 [Compound 9, 2,5-Difluoro-N-[2-fluoro-3-(1-isopropyl-4-pyridin-4-yl-1H-pyrazol-3-yl)-phenyl]-benzenesulfonamide]
